In one experiment the target is human JAK2 (Homo sapiens (Human), UniProt O60674). Conditions: read-out: JAK2 IC50.
In another experiment the target is human FAK (Homo sapiens (Human), UniProt Q05397). Conditions: read-out: FAK IC50.

Our source for the IC50 values is patent US8501936B2 (priority 2009, dated 2013).

human FAK, sequence (Q05397 whole entry): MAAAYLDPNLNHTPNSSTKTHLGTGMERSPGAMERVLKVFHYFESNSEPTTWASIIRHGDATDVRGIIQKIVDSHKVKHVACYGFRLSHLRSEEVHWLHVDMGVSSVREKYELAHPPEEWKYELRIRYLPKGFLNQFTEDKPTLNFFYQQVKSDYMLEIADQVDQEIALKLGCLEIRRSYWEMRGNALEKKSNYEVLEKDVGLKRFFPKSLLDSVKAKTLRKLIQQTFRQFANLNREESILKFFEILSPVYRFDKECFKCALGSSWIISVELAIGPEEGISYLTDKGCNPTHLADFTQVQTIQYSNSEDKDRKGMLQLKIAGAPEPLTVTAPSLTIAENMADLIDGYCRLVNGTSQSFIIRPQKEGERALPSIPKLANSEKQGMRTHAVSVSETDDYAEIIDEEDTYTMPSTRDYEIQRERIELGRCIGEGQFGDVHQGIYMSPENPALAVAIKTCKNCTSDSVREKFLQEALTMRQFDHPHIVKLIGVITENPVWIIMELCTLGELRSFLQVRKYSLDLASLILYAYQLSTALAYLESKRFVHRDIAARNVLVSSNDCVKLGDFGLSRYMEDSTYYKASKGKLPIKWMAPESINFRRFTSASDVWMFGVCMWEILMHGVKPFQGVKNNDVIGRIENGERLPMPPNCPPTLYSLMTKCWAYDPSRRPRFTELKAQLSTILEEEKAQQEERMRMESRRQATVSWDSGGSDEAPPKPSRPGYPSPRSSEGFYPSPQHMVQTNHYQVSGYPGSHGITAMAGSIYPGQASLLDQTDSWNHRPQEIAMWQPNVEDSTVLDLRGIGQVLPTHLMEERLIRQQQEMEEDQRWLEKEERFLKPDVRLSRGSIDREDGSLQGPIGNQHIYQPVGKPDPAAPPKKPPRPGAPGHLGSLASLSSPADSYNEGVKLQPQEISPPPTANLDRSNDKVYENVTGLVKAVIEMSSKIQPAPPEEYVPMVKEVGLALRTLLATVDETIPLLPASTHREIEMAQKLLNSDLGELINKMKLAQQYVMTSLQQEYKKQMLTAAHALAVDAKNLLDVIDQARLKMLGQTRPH
human JAK2, sequence (O60674 815-1132): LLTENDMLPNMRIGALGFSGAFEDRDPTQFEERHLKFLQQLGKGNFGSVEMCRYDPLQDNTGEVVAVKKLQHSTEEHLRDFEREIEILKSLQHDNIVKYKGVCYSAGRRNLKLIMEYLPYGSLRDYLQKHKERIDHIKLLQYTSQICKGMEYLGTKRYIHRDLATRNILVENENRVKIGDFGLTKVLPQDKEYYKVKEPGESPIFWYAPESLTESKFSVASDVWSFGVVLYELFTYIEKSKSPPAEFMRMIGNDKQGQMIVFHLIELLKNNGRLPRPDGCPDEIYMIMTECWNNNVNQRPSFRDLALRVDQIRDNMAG

On to `CN1CCN(c2ccc(Nc3nc4c(Nc5cccnc5N(C)S(C)(=O)=O)cccn4n3)cc2)CC1` [Example 131, N-Methyl-N-(3-{2-[4-(4-methyl-piperazin-1-yl)-phenylamino]-[1,2,4]triazolo[1,5-a]pyridin-8-ylamino}-pyridin-2-yl)-methanesulfonamide], for which the half-maximal inhibitory concentration (IC50) stood at 11.4 nM on human JAK2 and 1370 nM at human FAK.
For `CN(c1ncccc1Nc1cccn2nc(Nc3ccc(OCCN4CCCC4)cc3)nc12)S(C)(=O)=O` [Example 132, N-Methyl-N-(3-{2-[4-(2-pyrrolidin-1-yl-ethoxy)-phenylamino]-[1,2,4]triazolo[1,5-a]pyridin-8-ylamino}-pyridin-2-yl)-methanesulfonamide] the same measures were 33.1 nM and 3000 nM.
For `CN1CCC(c2ccc(Nc3nc4c(Nc5cccnc5N(C)S(C)(=O)=O)cccn4n3)cc2)CC1` [Example 133, N-Methyl-N-(3-{2-[4-(1-methyl-piperidin-4-yl)-phenylamino]-[1,2,4]triazolo[1,5-a]pyridin-8-ylamino}-pyridin-2-yl)-methanesulfonamide] the same measures were 17.4 nM and 2070 nM.
For `CN(c1ncccc1CNc1cccn2nc(Nc3ccc(S(C)(=O)=O)cc3)nc12)S(C)(=O)=O` [Example 134, N-(3-{[2-(4-Methanesulfonyl-phenylamino)-[1,2,4]triazolo[1,5-a]pyridin-8-ylamino]-methyl}-pyridin-2-yl)-N-methyl-methanesulfonamide] the same measures were 17.3 nM and 752 nM.
Consider `CN(c1ncccc1CNc1cccn2nc(Nc3cccc(S(C)(=O)=O)c3)nc12)S(C)(=O)=O` [Example 135, N-(3-{[2-(3-Methanesulfonyl-phenylamino)-[1,2,4]triazolo[1,5-a]pyridin-8-ylamino]-methyl}-pyridin-2-yl)-N-methyl-methanesulfonamide], for which the values for the IC50 at human JAK2 and on human FAK were 77.8 nM and 215 nM, respectively.
For `CN1CCN(c2cccc(Nc3nc4c(NCc5cccnc5N(C)S(C)(=O)=O)cccn4n3)c2)CC1` [Example 136, N-Methyl-N-[3-({2-[3-(4-methyl-piperazin-1-yl)-phenylamino]-[1,2,4]triazolo[1,5-a]pyridin-8-ylamino}-methyl)-pyridin-2-yl]-methanesulfonamide] the same measures were 77.2 nM and 71.1 nM.
For `COc1cc(N2CCN(C)CC2)ccc1Nc1nc2c(NCc3cccnc3N(C)S(C)(=O)=O)cccn2n1` [Example 137, N-[3-({2-[2-Methoxy-4-(4-methyl-piperazin-1-yl)-phenylamino]-[1,2,4]triazolo[1,5-a]pyridin-8-ylamino}-methyl)-pyridin-2-yl]-N-methyl-methanesulfonamide] the same measures were 3000 nM and 39.7 nM.
`CN1CCN(c2ccc(Nc3nc4c(NCc5ccccc5S(C)(=O)=O)cccn4n3)cc2)CC1` [Example 138, N(8)-(2-Methanesulfonyl-benzyl)-N(2)-[4-(4-methyl-piperazin-1-yl)-phenyl]-[1,2,4]triazolo[1,5-a]pyridine-2,8-diamine]: the IC50 came to 13.2 nM at human JAK2 and 199 nM at human FAK.
On to `CN1CCN(c2cccc(Nc3nc4c(NCc5ccccc5S(C)(=O)=O)cccn4n3)c2)CC1` [Example 139, N(8)-(2-Methanesulfonyl-benzyl)-N(2)-[3-(4-methyl-piperazin-1-yl)-phenyl]-[1,2,4]triazolo[1,5-a]pyridine-2,8-diamine], for which the concentration for half-maximal inhibition (IC50) at human JAK2 stood at 26.3 nM; at human FAK, 200 nM.
Regarding `CN1CCC(c2ccc(Nc3nc4c(NCc5ccccc5S(C)(=O)=O)cccn4n3)cc2)CC1` [Example 140, N(8)-(2-Methanesulfonyl-benzyl)-N(2)-[4-(1-methyl-piperidin-4-yl)-phenyl]-[1,2,4]triazolo[1,5-a]pyridine-2,8-diamine], the IC50 at human JAK2 worked out at 22.6 nM; on human FAK, 124 nM.
Taken in the same sequence, the figures for `CS(=O)(=O)c1ccccc1CNc1cccn2nc(Nc3ccc(OCCN4CCCC4)cc3)nc12` [Example 141, N(8)-(2-Methanesulfonyl-benzyl)-N(2)-[4-(2-pyrrolidin-1-yl-ethoxy)-phenyl]-[1,2,4]triazolo[1,5-a]pyridine-2,8-diamine] were 15.1 nM and 98.8 nM.
As to `C[C@H](O)CN1CCN(c2cccc(Nc3nc4c(-c5ccc(S(C)(=O)=O)cc5)cccn4n3)c2)CC1` [Example 142, (S)-1-(4-{3-[8-(4-Methanesulfonyl-phenyl)-[1,2,4]triazolo[1,5-a]pyridin-2-ylamino]-phenyl}-piperazin-1-yl)-propan-2-ol], the IC50 worked out at 0.75 nM at human JAK2 and 935 nM at human FAK.
For `C[C@@H](O)CN1CCN(c2cccc(Nc3nc4c(-c5ccc(S(C)(=O)=O)cc5)cccn4n3)c2)CC1` [Example 143, (R)-1-(4-{3-[8-(4-Methanesulfonyl-phenyl)-[1,2,4]triazolo[1,5-a]pyridin-2-ylamino]-phenyl}-piperazin-1-yl)-propan-2-ol] the same measures were 1.13 nM and 1990 nM.
For `CC(C)(O)CN1CCN(c2cccc(Nc3nc4c(-c5ccc(S(C)(=O)=O)cc5)cccn4n3)c2)CC1` [Example 144, 1-(4-{3-[8-(4-Methanesulfonyl-phenyl)-[1,2,4]triazolo[1,5-a]pyridin-2-ylamino]-phenyl}-piperazin-1-yl)-2-methyl-propan-2-ol] the same measures were 2.61 nM and 2050 nM.
As for `CS(=O)(=O)c1ccc(-c2cccn3nc(Nc4ccc5c(c4)CCC(N4CCOCC4)CC5)nc23)cc1` (stereo not shown) [Example 145, [8-(4-Methanesulfonyl-phenyl)-[1,2,4]triazolo[1,5-a]pyridin-2-yl]-(7-morpholin-4-yl-6,7,8,9-tetrahydro-5H-benzocyclohepten-2-yl)-amine], the values for the IC50 on human JAK2 and at human FAK were 1.55 nM and 671 nM, respectively.
For the compound `CN1CCN(c2ccc(Nc3nc4c(NCc5ccccc5N(C)S(C)(=O)=O)cccn4n3)cc2)CC1` [Example 147, N-Methyl-N-[2-({2-[4-(4-methyl-piperazin-1-yl)-phenylamino]-[1,2,4]triazolo[1,5-a]pyridin-8-ylamino}-methyl)-phenyl]-methanesulfonamide], the results for the concentration for half-maximal inhibition (IC50) on human JAK2 and on human FAK were 29.1 nM and 11.4 nM, respectively.
For `CN1CCC(c2ccc(Nc3nc4c(NCc5ccccc5N(C)S(C)(=O)=O)cccn4n3)cc2)CC1` [Example 149, N-Methyl-N-[2-({2-[4-(1-methyl-piperidin-4-yl)-phenylamino]-[1,2,4]triazolo[1,5-a]pyridin-8-ylamino}-methyl)-phenyl]-methanesulfonamide], the concentration for half-maximal inhibition (IC50) amounted to 38.5 nM at human JAK2 and 13.6 nM on human FAK.
Taken in the same sequence, the figures for `CN(c1ccccc1CNc1cccn2nc(Nc3ccc(OCCN4CCCC4)cc3)nc12)S(C)(=O)=O` [Example 150, N-Methyl-N-[2-({2-[4-(2-pyrrolidin-1-yl-ethoxy)-phenylamino]-[1,2,4]triazolo[1,5-a]pyridin-8-ylamino}-methyl)-phenyl]-methanesulfonamide] were 43.7 nM and 13 nM.
For `CN1CCN(c2ccc(Nc3nc4c(NCc5cccnc5)cccn4n3)cc2)CC1` [Example 151, N(2)-[4-(4-Methyl-piperazin-1-yl)-phenyl]-N(8)-pyridin-3-ylmethyl-[1,2,4]triazolo[1,5-a]pyridine-2,8-diamine] the same measures were 488 nM and 6500 nM.
For `CS(=O)(=O)c1ccc(-c2cccn3nc(Nc4cccc(N5CCN(CCO)CC5)c4)nc23)cc1` [Example 152, 2-(4-{3-[8-(4-Methanesulfonyl-phenyl)-[1,2,4]triazolo[1,5-a]pyridin-2-ylamino]-phenyl}-piperazin-1-yl)-ethanol] the same measures were 2.37 nM and 999 nM.
Take `CN1CCN(c2cccc(Nc3nc4c(NCc5cccnc5)cccn4n3)c2)CC1` [Example 153, N(2)-[3-(4-Methyl-piperazin-1-yl)-phenyl]-N(8)-pyridin-3-ylmethyl-[1,2,4]triazolo[1,5-a]pyridine-2,8-diamine]: the half-inhibitory concentration (IC50) on human JAK2 worked out at 647 nM; at human FAK it was 6500 nM.
For the compound `c1cncc(CNc2cccn3nc(Nc4ccc(OCCN5CCCC5)cc4)nc23)c1` [Example 154, N(8)-Pyridin-3-ylmethyl-N(2)-[4-(2-pyrrolidin-1-yl-ethoxy)-phenyl]-[1,2,4]triazolo[1,5-a]pyridine-2,8-diamine], the values for the concentration for half-maximal inhibition (IC50) on human JAK2 and on human FAK were 571 nM and 10000 nM, respectively.
In the case of `CN(c1ncccc1CNc1cccn2nc(Nc3ccc(N4CCN(CCO)CC4)cc3)nc12)S(C)(=O)=O` [Example 155, N-{3-[(2-{4-[4-(2-Hydroxy-ethyl)-piperazin-1-yl]-phenylamino}-[1,2,4]triazolo[1,5-a]pyridin-8-ylamino)-methyl]-pyridin-2-yl}-N-methyl-methanesulfonamide], the concentration for half-maximal inhibition (IC50) at human JAK2 is 36 nM; at human FAK, 379 nM.
In the case of `CN1CCN(c2ccc(Nc3nc4c(NCc5ccccc5CN(C)S(C)(=O)=O)cccn4n3)cc2)CC1` [Example 156, N-Methyl-N-[2-({2-[4-(4-methyl-piperazin-1-yl)-phenylamino]-[1,2,4]triazolo[1,5-a]pyridin-8-ylamino}-methyl)-benzyl]-methanesulfonamide], the IC50 at human JAK2 came out at 35.4 nM; at human FAK, 179 nM.
With `CN1CCN(c2cccc(Nc3nc4c(NCc5ccccc5CN(C)S(C)(=O)=O)cccn4n3)c2)CC1` [Example 157, N-Methyl-N-[2-({2-[3-(4-methyl-piperazin-1-yl)-phenylamino]-[1,2,4]triazolo[1,5-a]pyridin-8-ylamino}-methyl)-benzyl]-methanesulfonamide], the IC50 on human JAK2 was 220 nM; at human FAK it was 300 nM.
For `CN(Cc1ccccc1CNc1cccn2nc(Nc3ccc(OCCN4CCCC4)cc3)nc12)S(C)(=O)=O` [Example 158, N-Methyl-N-[2-({2-[4-(2-pyrrolidin-1-yl-ethoxy)-phenylamino]-[1,2,4]triazolo[1,5-a]pyridin-8-ylamino}-methyl)-benzyl]-methanesulfonamide] the same measures were 97.5 nM and 276 nM.
